Article PMC10221314 (Pharmaceuticals, 2023)
Where “and” joins values, the source holds several entries; their conditions need not be identical. Equal entries are not always repeated.

Target: T1, FXR (Homo sapiens, UniProt Q96RI1)
T1 construct: a fusion plasmid of Gal4 DBD-NR-LBD, which included PPARα, PPARβ, PPARγ, RXRα, RXRβ, RXRγ, LXRα, LXRβ, GPBAR, PXR, and FXR; expressed in transfected cells; host or cells: HEK-293T
T1 sequence (Q96RI1 262-486 limits assumed): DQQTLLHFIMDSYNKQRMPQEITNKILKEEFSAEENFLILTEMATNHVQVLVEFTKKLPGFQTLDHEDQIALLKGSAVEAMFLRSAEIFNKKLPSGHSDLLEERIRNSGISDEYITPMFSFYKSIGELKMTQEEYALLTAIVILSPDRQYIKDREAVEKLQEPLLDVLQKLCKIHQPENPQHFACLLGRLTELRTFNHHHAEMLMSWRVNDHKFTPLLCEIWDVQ
Assay: Yeast one-hybrid assay of FXR antagonistic activity in HEK-293T cells
Assay type: cell-based
Settings: HEK-293T cells; CDCA (50 μM) as agonist; mean ± SE of three independent tests
Experimental: Cell counting: HEK-293T cells in logarithmic growth phase were digested with 0.25% trypsin, collected, and centrifuged. The trypsin-containing medium was discarded, and 2 mL of fresh phenol red-free DMEM medium containing 5% fetal bovine serum was added. The cells were then mixed with the medium to prepare a cell suspension and counted on a cell counting plate.
Cell plating: A determined number of cells were taken from the cell suspension, diluted with phenol red-free DMEM medium containing 5% fetal bovine serum, and plated at a concentration of 10,000 cells per well (100 µL medium) in a 96-well plate. The plate was then incubated at 37 °C and 5% CO2 for 24 h.
Cell transfection: Fresh phenol red-free DMEM medium was taken in a sterile environment, and the previously extracted pFXR-Binding plasmid and PG4.35[luc2P-9XGA4UAS-Hygro] plasmid were added. The mixture was stirred and allowed to stand at 23 °C for 3 min. Then, a 3% amount of transfection reagent was added to the mixture, and it was allowed to stand at 23 °C for 15 min. The mixture was then added to the 96-well plate at a volume of 10 µL per well and incubated at 37 °C in a 5% CO2 environment for 24 h.
The OA derivatives were prepared as 10 mM DMSO stock solutions and further diluted in a concentration gradient, with 10 µL added to each well. The final concentrations of the derivatives ranged from 10 µM to 0.03 µM, with 7 concentration gradients using […] dilution. The test was set with 3 duplicated wells.
Antagonism activity test: The firefly-Renilla Dual Fluorescence Assay Kit (Promega, #E2940, Madison, WI, USA) was used to measure the antagonism activity of the OA derivatives. Firstly, the firefly fluorescence reagent was added to the 96-well plate at a volume of 70 µL per well and shaken in darkness for 15 min. Then, the fluorescence intensity was measured at a wavelength of 645 ± 30 nm in a microplate reader (BioTek, Winooski, VT, USA). Next, the volume of Renilla reagent was added to the 96-well plate at a volume of 70 µL per well and shaken in darkness for 15 min. The fluorescence intensity was then measured at a wavelength of 525 ± 20 nm.
Data processing: The fluorescence data of firefly were divided by the fluorescence data of Renilla to remove errors, and the antagonism efficiency was calculated using the following formula: antagonism efficiency (%) = [1 − (FCompds. − FDMSO)/(FCDCA − FDMSO)] × 100%. In the formula, F represents fluorescence intensity. The antagonistic efficiency data were obtained as a concentration–effect curve using Graphpad Prism 8.0 software, and the corresponding IC50 value was calculated.

| Compound | IC50 |
| --- | --- |
| CC1(C)CC[C@]2(C(=O)O)CC[C@]3(C)[C@H]([C@H](OC(=O)C[C@H](NC(=O)OC(C)(C)C)C(=O)OC(C)(C)C)CC4[C@@]5(C)CC[C@H](O)C(C)(C)C5CC[C@]43C)[C@@H]2C1 (stereo partly drawn) [Compound 9a, 3-hydroxy-12β-(3′-((tert-butoxycarbonyl)amino)-4′-(tert-butoxy)-L-aspartate)oxy-13H-olean-28-oic acid] | 0.95 ± 0.14 µM |
| CC1(C)CC[C@]2(C(=O)O)CC[C@]3(C)[C@H]([C@H](OC(=O)C[C@@H](NC(=O)OC(C)(C)C)C(=O)OC(C)(C)C)CC4[C@@]5(C)CC[C@H](O)C(C)(C)C5CC[C@]43C)[C@@H]2C1 (stereo partly drawn) [Compound 9b, 3-hydroxy-12β-(3′-((tert-butoxycarbonyl)amino)-4′-(tert-butoxy)-D-aspartate)oxy-13H-olean-28-oic acid] | 2.39 ± 0.35 µM |
| CC1(C)CC[C@]2(C(=O)O)CC[C@]3(C)[C@H]([C@H](OC(=O)CC[C@@H](NC(=O)OC(C)(C)C)C(=O)OC(C)(C)C)CC4[C@@]5(C)CC[C@H](O)C(C)(C)C5CC[C@]43C)[C@@H]2C1 (stereo partly drawn) [Compound 10a, 3-hydroxy-12β-(4′-((tert-butoxycarbonyl)amino)-5′-(tert-butoxy)-D-glutamate)oxy-13H-olean-28-oic acid] | 1.95 ± 0.27 µM |
| CC1(C)CC[C@]2(C(=O)O)CC[C@]3(C)[C@H]([C@H](OC(=O)C[C@@H](CC(=O)OC(C)(C)C)NC(=O)OC(C)(C)C)CC4[C@@]5(C)CC[C@H](O)C(C)(C)C5CC[C@]43C)[C@@H]2C1 (stereo partly drawn) [Compound 10c, 3-hydroxy-12β-((S)-3′-((tert-butoxycarbonyl)amino)-5′-(tert-butoxy)-5-oxopentanoyl)oxy-13H-olean-28-oic acid] | 1.34 ± 0.23 µM |
| CC1(C)CC[C@]2(C(=O)O)CC[C@]3(C)[C@H]([C@H](OC(=O)[C@@H](CCC(=O)OC(C)(C)C)NC(=O)OC(C)(C)C)CC4[C@@]5(C)CC[C@H](O)C(C)(C)C5CC[C@]43C)[C@@H]2C1 (stereo partly drawn) [Compound 10d, 3-hydroxy-12β-(2′-((tert-butoxycarbonyl)amino)-5′-(tert-butoxy)-D-glutamate)oxy-13H-olean-28-oic acid] | 3.67 ± 0.39 µM |
| CC1(C)CC[C@]2(C(=O)O)CC[C@]3(C)[C@H]([C@H](OC(=O)CC[C@H](N)C(=O)OC(C)(C)C)CC4[C@@]5(C)CC[C@H](O)C(C)(C)C5CC[C@]43C)[C@@H]2C1 (stereo partly drawn) [Compound 11a, 3-hydroxy-12β-((S)-4′-amino-5′-(tert-butoxy)-5-oxopentanoyl)oxy-13H-olean-28-oic acid] | 2.95 ± 0.68 µM |
| CC1(C)CC[C@]2(C(=O)O)CC[C@]3(C)[C@H]([C@H](OC(=O)CC[C@H](NC(=O)OC(C)(C)C)C(=O)O)CC4[C@@]5(C)CC[C@H](O)C(C)(C)C5CC[C@]43C)[C@@H]2C1 (stereo partly drawn) [Compound 11b, 3-hydroxy-12β-((S)-4′-((tert-butoxycarbonyl)amino)-4′-carboxybutanoyl)oxy-13H-olean-28-oic acid] | 7.65 ± 0.35 µM |
| CC1(C)CC[C@]2(C(=O)O)CC[C@]3(C)[C@H]([C@H](OC(=O)CC[C@H](N)C(=O)O)CC4[C@@]5(C)CC[C@H](O)C(C)(C)C5CC[C@]43C)[C@@H]2C1 (stereo partly drawn) [Compound 11c, 3-hydroxy-12β-((S)-4′-amino-4′-carboxybutanoyl)oxy-13H-olean-28-oic acid] | 21.3 ± 2.6 µM |
| COC(=O)NC(CCC(=O)OC1CC2C3(C)CCC(O)C(C)(C)C3CCC2(C)C2(C)CCC3(C(=O)O)CCC(C)(C)CC3C12)C(=O)OC(C)(C)C [Compound 19a, 3β-hydroxy-12β-(4′-((methoxycarbonyl)amide)-5′-(tert-butoxy)-L-glutamate)oxy-13H-olean-28-oic acid] | 0.55 ± 0.22 µM |
| CCOC(=O)NC(CCC(=O)OC1CC2C3(C)CCC(O)C(C)(C)C3CCC2(C)C2(C)CCC3(C(=O)O)CCC(C)(C)CC3C12)C(=O)OC(C)(C)C [Compound 19b, 3β-hydroxy-12β-(4′-((ethoxycarbonyl)amide)-5′-(tert-butoxy)-L-glutamate)oxy-13H-olean-28-oic acid] | 0.57 ± 0.36 µM |
| CCCOC(=O)NC(CCC(=O)OC1CC2C3(C)CCC(O)C(C)(C)C3CCC2(C)C2(C)CCC3(C(=O)O)CCC(C)(C)CC3C12)C(=O)OC(C)(C)C [Compound 19c, 3β-hydroxy-12β-(4′-((propoxycarbonyl)amide)-5′-(tert-butoxy)-L-glutamate)oxy-13H-olean-28-oic acid] | 0.4 to 0.5 µM and 0.45 µM |
| CC(C)OC(=O)NC(CCC(=O)OC1CC2C3(C)CCC(O)C(C)(C)C3CCC2(C)C2(C)CCC3(C(=O)O)CCC(C)(C)CC3C12)C(=O)OC(C)(C)C [Compound 19d, 3β-hydroxy-12β-(4′-((isopropoxycarbonyl)amide)-5′-(tert-butoxy)-L-glutamate)oxy-13H-olean-28-oic acid] | 0.4 to 0.5 µM and 0.47 µM |
| CC(C)COC(=O)NC(CCC(=O)OC1CC2C3(C)CCC(O)C(C)(C)C3CCC2(C)C2(C)CCC3(C(=O)O)CCC(C)(C)CC3C12)C(=O)OC(C)(C)C [Compound 19e, 3β-hydroxy-12β-(4′-((isobutoxycarbonyl)amide)-5′-(tert-butoxy)-L-glutamate)oxy-13H-olean-28-oic acid] | 0.92 ± 0.14 µM |
| CCC(C)OC(=O)NC(CCC(=O)OC1CC2C3(C)CCC(O)C(C)(C)C3CCC2(C)C2(C)CCC3(C(=O)O)CCC(C)(C)CC3C12)C(=O)OC(C)(C)C [Compound 19f, 3β-hydroxy-12β-(4′-((sec-butoxycarbonyl)amide)-5′-(tert-butoxy)-L-glutamate)oxy-13H-olean-28-oic acid] | 0.6 ± 0.04 µM |
| CC1(C)CCC2(C(=O)O)CCC3(C)C(C(OC(=O)CCC(NC(=O)OC4CCCC4)C(=O)OC(C)(C)C)CC4C5(C)CCC(O)C(C)(C)C5CCC43C)C2C1 [Compound 19g, 3β-hydroxy-12β-(4′-(((cyclopentyloxy)carbonyl)amide)-5′-(tert-butoxy)-L-glutamate)oxy-13H-olean-28-oic acid] | 0.72 ± 0.18 µM |
| CC1(C)CCC2(C(=O)O)CCC3(C)C(C(OC(=O)CCC(NC(=O)Oc4ccccc4)C(=O)OC(C)(C)C)CC4C5(C)CCC(O)C(C)(C)C5CCC43C)C2C1 [Compound 19h, 3β-hydroxy-12β-(4′-((phenoxycarbonyl)amide)-5′-(tert-butoxy)-L-glutamate)oxy-13H-olean-28-oic acid] | 2.22 µM and 2.18 µM |
| COC(=O)C(CCC(=O)OC1CC2C3(C)CCC(O)C(C)(C)C3CCC2(C)C2(C)CCC3(C(=O)O)CCC(C)(C)CC3C12)NC(=O)OC(C)(C)C [Compound 20a, 3β-hydroxy-12β-(4′-((tert-butoxycarbonyl)amide)-5′-methoxy-L-glutamate)oxy-13H-olean-28-oic acid] | 1.1 ± 0.19 µM |
| CCOC(=O)C(CCC(=O)OC1CC2C3(C)CCC(O)C(C)(C)C3CCC2(C)C2(C)CCC3(C(=O)O)CCC(C)(C)CC3C12)NC(=O)OC(C)(C)C [Compound 20b, 3β-hydroxy-12β-(4′-((tert-butoxycarbonyl)amide)-5′-ethoxy-L-glutamate)oxy-13H-olean-28-oic acid] | 1.02 ± 0.21 µM |
| CCCOC(=O)C(CCC(=O)OC1CC2C3(C)CCC(O)C(C)(C)C3CCC2(C)C2(C)CCC3(C(=O)O)CCC(C)(C)CC3C12)NC(=O)OC(C)(C)C [Compound 20c, 3β-hydroxy-12β-(4′-((tert-butoxycarbonyl)amide)-5′-propoxy-L-glutamate)oxy-13H-olean-28-oic acid] | 0.56 ± 0.13 µM |
| CC(C)OC(=O)C(CCC(=O)OC1CC2C3(C)CCC(O)C(C)(C)C3CCC2(C)C2(C)CCC3(C(=O)O)CCC(C)(C)CC3C12)NC(=O)OC(C)(C)C [Compound 20d, 3β-hydroxy-12β-(4′-((tert-butoxycarbonyl)amide)-5′-isopropoxy-L-glutamate)oxy-13H-olean-28-oic acid] | 0.55 ± 0.09 µM |
